Data as given in US20020064770A1, “Binding compounds and methods for identifying binding compounds” (priority 2000, published 2002).

Assays:
T-cell line-tropic HIV-1 = details: cited from earlier work
CCR5 [1] = biological target: T1, CCR5 (Homo sapiens, UniProt P51681); details: CCR5-expressing Chinese hamster ovary cells; cited from earlier work
CCR5 [2] = biological target: T1, CCR5; set-up: endogenous in cells; host or cells: monocytes; details: cited from earlier work
R5 HIV-1 = details: clinical isolates and a laboratory strain; peripheral blood mononuclear cells; cited from earlier work
M-tropic HIV-1 strains = details: cited from earlier work
CCR5 [3] = biological target: T1, CCR5; set-up: endogenous in cells; host or cells: monocytes; details: monocytes; cited from earlier work
CCR5 [4] = assay: Binding affinity of identified peptide ligands for CCR5 (displacement of [125I]-MIP-1β); set-up: species or system human
Source text: In order to determine those ligands that had the highest affinity to the target receptor, generally, over 200 peptide libraries were screened to determine each library's respective inhibition binding. […] In additional aspects of the invention, once preferred amino acid residues are identified due to high preference values by CCR5 at the degenerate positions of the library, specific peptides are synthesized by the same methods as employed for library synthesis. In one embodiment of the invention, a high preference value is greater than 1. The value is determined by subtracting the control value from the sample value and dividing by the reference value. In a preferred embodiment of the invention, the preference value is greater than 1.2. In a highly preferred embodiment of the invention, the preference value is greater than 2. After synthesis of the identified peptide sequence, the peptide is purified by, for example, High Performance Liquid Chromatography (“HPLC”) and compositions are confirmed by Matrix-Assisted Laser Desorption Ionization-Time of Flight Mass Spectrometer (“MALDI-TOF MS”) and Edman Sequencing. Generally, relative affinities may be measured by modifying the radiolabel binding assay used in receptor purification.
Relative affinities were measured by modifying the radiolabel binding assay used in receptor purification.

PDZ = details: binding domain PDZ; cited from earlier work
SH2 (src) = biological target: T2, SH2 (src) (Homo sapiens, UniProt P12931); details: binding domain SH2 (src); cited from earlier work
T2 construct: SH2 (src)

14-3-3 = details: binding domain 14-3-3; cited from earlier work
CCR5 [5] = details: value obtained by Receptor Biology; applicant's membrane preparations comparable; read-out: Kd for MIP1-β binding; cited from earlier work

T1 sequence (P51681 whole entry): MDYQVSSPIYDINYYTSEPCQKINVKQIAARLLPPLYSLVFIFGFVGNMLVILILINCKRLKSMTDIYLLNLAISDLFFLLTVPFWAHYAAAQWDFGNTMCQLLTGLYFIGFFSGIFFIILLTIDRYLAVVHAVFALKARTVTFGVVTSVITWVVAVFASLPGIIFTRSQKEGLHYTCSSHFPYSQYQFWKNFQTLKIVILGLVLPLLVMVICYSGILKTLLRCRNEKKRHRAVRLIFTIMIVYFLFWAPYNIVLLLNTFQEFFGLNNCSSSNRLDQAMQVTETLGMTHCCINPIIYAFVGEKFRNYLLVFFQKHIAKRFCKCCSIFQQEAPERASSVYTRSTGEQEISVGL

Cc1ccc(-c2ccc3c(c2)C=C(C(=O)Nc2ccc(C[N+](C)(C)C4CCOCC4)cc2)CCC3)cc1.[Cl-] [TAK-779]
activity against T-cell line-tropic HIV-1 (T-cell line-tropic HIV-1): inactive
antagonism of RANTES binding to CCR5 (CCR5 [1]): antagonizes
concentration blocking CCR5-mediated Ca2+ signaling (CCR5 [2]): nanomolar
concentration inhibiting replication of R5 HIV-1 (R5 HIV-1): 1.6 to 3.7 nM

Aminooxypentane (AOP)-RANTES[2-68]
inhibition of infection of macrophages (M-tropic HIV-1 strains): potently inhibits
antagonist potency on CCR5 function (CCR5 [3]): subnanomolar

K-K-K-A-R-S-L-I-W-R-P-A-K-A-K-K-K (KKKARSLIWRPAKAKKK)
affinity and action on CCR5 (CCR5 [4]): enhanced affinity and action

KKKKETDV
Kd (PDZ): 42 nM

M-A-R-S-L-I-W-R-P-A-K-A-K-K-A (MARSLIWRPAKAKKA)
affinity and action on CCR5 (CCR5 [4]): enhanced affinity and action

PYBEIY
Kd (SH2 (src)): 100 nM

RLSHpSLP
Kd (14-3-3): 55.7 nM

cyclo(M-Y-A-T-R-W-K-N) (MYATRWKN; cyclic)
affinity and action on CCR5 (CCR5 [4]): enhanced affinity and action

B1: MIP-1β: natural CCR5 ligand, used as [125I] radioligand (protein, UniProt P13236 24-92, looked up)
C-C motif chemokine 4: APMGSDPPTACCFSYTARKLPRNFVVDYYETSSLCSQPAVVFQTKRSKQVCADPSESWVQEYVYDLELN
modifications: ends and bridges not checked; also: [125I] radiolabel
Kd (CCR5 [5]): < 1 nM
